Data as given in patent EP1477171A1, “Intestinal mineral absorption capacity improver” (Kao Corporation, priority 2003, dated 2004).

Assays:
[1] = pH of a 2 mass% aqueous solution; type: physicochemical
[2] = test system: SD rats; assay: 45Ca level in blood plasma after oral 45Ca calcium chloride in rats fed the test diet for 10 days (intestinal calcium absorption capacity); type: in vivo; conditions: test diet (1.88 mass% in feed, 15 g/day, 10 days) vs control diet; 24 h fast; plasma 30 minutes, 1 hour and 2 hours after oral ^45Ca calcium chloride; Scheffe method, significant level less than 1%
Procedure: Rats (8-week-old, male, SD rats), 10 rats consisting of one group, were each fed with 15 g/day of a control diet or a glucose 1-phosphate sodium salt diet as shown in Table 1 for 10 days. As the glucose 1-phosphate sodium salt, product of Solchem (Italy) was employed and the feed was adjusted to have a calcium concentration of 0.2 mass% and a P concentration of 0.4 mass%. The rats were allowed to take distilled water ad libitum.
After the rats were fasted for 24 hours, they were orally administered with 1.5 mL (containing ^45CalµCi), per average weight, of a 1 mg/mL calcium chloride solution containing ^45Ca singly. The blood plasma was obtained from about 0.5 mL of the blood collected from their carotid artery 30 minutes, 1 hour and 2 hours after administration. The ^45Ca level in 100 µL of the blood plasma was measured by a liquid scintillation counter.
A change in the ^45Ca level in 100 µL of the blood plasma separated from the […] 30 minutes, 1 hour and 2 hours after the administration of a ^45Ca-containing calcium chloride solution was statically analyzed by the Scheffe method. […]

[3] = test system: SD rats; assay: duration of the intestinal calcium absorption capacity improving effect after feeding is terminated (45Ca level in plasma); type: in vivo; conditions: test diet 10 days, then control diet; for 3 days after termination; relative to the control group
Source text: As in Example 1, 15 g/day of a control diet and a test diet as shown in Table 1 were fed to groups of rats (8-week-old, male, SD rats), each group consisting of 8 rats, for 10 days, respectively. The rat groups fed with the test diet were divided into three groups and as the feed after 10 days, the control diet was fed to each group and feeding of the glucose 1-phosphate sodium salt was terminated. The termination period was 1 day, 3 days and 7 days. The ^45Ca level in the blood plasma after completion of the feeding period was measured in accordance with the method of Example 1.

Compound	pH of a 2 mass% aqueous solution [1]	^45Ca level in the blood plasma [2]	^45Ca level in the plasma after feeding was terminated [3]
O=P(O)(O)OC1O[C@H](CO)[C@@H](O)[C@H](O)[C@H]1O (stereo partly shown) [Glucose-1-phosphoric acid, reference compound]	1.5		
glucose 1-phosphate sodium salt	about 8.0	statistically significant increase	significant increase
